Source: patent publication US10485800B2, “Mixed lineage kinase inhibitors for HIV/AIDS therapies” (UNIVERSITY OF ROCHESTER, priority 2012, dated 2019)

Molecular target: MLK3 (Homo sapiens (Human), UniProt Q16584)
Test: Radiometric filter plate MLK3 assay
Format: biochemical
Settings: 2 μM cold ATP (Km), 1 μM inactive MKK7b, twenty minute incubation; read-out: MK3 IC50
Experimental: After a twenty minute incubation, the reactions were washed through filter plates and read on a scintillation counter. Results are shown in Table 9 below, in which +++ indicates ≤0.1 μM, ++ indicates >0.1 μM and ≤1 μM, and + indicates >1 μM.

Chain of MLK3 (Q16584 whole entry): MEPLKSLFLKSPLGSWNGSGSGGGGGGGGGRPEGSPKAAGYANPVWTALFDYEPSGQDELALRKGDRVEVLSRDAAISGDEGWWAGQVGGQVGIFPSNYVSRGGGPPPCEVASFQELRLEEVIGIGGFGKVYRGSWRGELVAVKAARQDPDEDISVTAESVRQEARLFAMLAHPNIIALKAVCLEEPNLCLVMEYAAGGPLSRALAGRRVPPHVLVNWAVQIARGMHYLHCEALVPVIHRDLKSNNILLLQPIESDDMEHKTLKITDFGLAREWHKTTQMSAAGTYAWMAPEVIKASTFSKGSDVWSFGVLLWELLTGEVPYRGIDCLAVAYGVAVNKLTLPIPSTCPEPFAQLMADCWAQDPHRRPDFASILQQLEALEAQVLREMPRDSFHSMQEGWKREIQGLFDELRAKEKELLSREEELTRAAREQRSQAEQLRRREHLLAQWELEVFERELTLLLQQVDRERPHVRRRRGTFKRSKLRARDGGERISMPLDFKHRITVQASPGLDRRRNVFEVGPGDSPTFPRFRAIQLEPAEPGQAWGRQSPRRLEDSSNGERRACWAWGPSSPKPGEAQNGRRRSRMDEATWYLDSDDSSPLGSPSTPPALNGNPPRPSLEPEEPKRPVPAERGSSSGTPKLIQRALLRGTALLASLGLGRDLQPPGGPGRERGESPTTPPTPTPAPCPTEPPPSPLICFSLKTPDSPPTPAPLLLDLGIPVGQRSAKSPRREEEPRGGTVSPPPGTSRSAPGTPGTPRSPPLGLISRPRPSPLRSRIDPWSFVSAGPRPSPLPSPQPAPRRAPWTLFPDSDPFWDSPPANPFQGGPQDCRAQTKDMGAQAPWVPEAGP

Question: Which IC50 does the source give for Nc1ccc(-c2cnc3[nH]cc(-c4ccc5[nH]ccc5c4)c3c2)cn1 [Example 4, 5-(3-(1H-indol-5-yl)-1H-pyrrolo[2,3-b]pyridin-5-yl)pyridin-2-amine] here?
Answer: Its IC50 is under 0.1 µM.

Question: For Nc1ncc(-c2cnc3[nH]cc(-c4ccc5[nH]ccc5c4)c3c2)cn1 [Example 9, 5-(3-(1H-indol-5-yl)-1H-pyrrolo[2,3-b]pyridin-5-yl)pyrimidin-2-amine], which IC50 is on record?
Answer: Its IC50 is under 0.1 µM.

Question: With COc1cc(-c2cnc3[nH]cc(-c4ccc(N)nc4)c3c2)cc(OC)c1OC [Example 18, 5-(5-(3,4,5-trimethoxyphenyl)-1H-pyrrolo[2,3-b]pyridin-3-yl)pyridin-2-amine] as the compound, how does the IC50 read?
Answer: The IC50 was under 0.1 µM.

Question: Which IC50 does the source give for COc1cc(-c2cnc3[nH]cc(-c4cnc(N)nc4)c3c2)cc(OC)c1OC [Example 17, 5-(5-(3,4,5-trimethoxyphenyl)-1H-pyrrolo[2,3-b]pyridin-3-yl)pyrimidin-2-amine] here?
Answer: The IC50 was under 0.1 µM.

Question: Which IC50 does the source give for CC(=O)N1CCN(Cc2ccc(-c3cnc4[nH]cc(-c5ccc6[nH]ccc6c5)c4c3)cc2)CC1 [Example 140, 1-(4-{4-[3-(1H-indol-5-yl)-1H-pyrrolo[2,3-b]pyridin-5-yl]-benzyl}-piperazin-1-yl)-ethanone] here?
Answer: The IC50 was over 1 µM.

Question: Which IC50 does the source give for COc1cc(-c2cnc3[nH]c(=O)n(-c4ccc(N5CCOCC5)nc4)c3n2)cc(OC)c1OC [Example 109, 1-(6-morpholinopyridin-3-yl)-6-(3,4,5-trimethoxyphenyl)-1H-imidazo[4,5-b]pyrazin-2(3H)-one] here?
Answer: The IC50 was over 1 µM.

Question: Which IC50 does the source give for O=c1[nH]c2ncc(-c3cc(Cl)cc(Cl)c3)nc2n1CC1CC1 [Example 80, 1-(cyclopropylmethyl)-6-(3,5-dichlorophenyl)-1H-imidazo[4,5-b]pyrazin-2(3H)-one] here?
Answer: The IC50 was over 1 µM.

Question: For COc1ccc(-n2c(=O)[nH]c3ncc(-c4ccc(OC)c(OC)c4)nc32)cc1 [Example 69, 6-(3,4-dimethoxyphenyl)-1-(4-methoxyphenyl)-1H-imidazo[4,5-b]pyrazin-2(3H)-one], which IC50 is on record?
Answer: The IC50 was over 1 µM.

Question: Which IC50 does the source give for CC(=O)Nc1ccc(-c2cnc3[nH]cc(-c4ccc5[nH]ccc5c4)c3c2)cc1 [Example 3, N-(4-(3-(1H-indol-5-yl)-1H-pyrrolo[2,3-b]pyridin-5-yl)phenyl)acetamide] here?
Answer: Its IC50 is under 0.1 µM.

Question: With COc1cc(-c2cc3c(-c4ccc(C(N)=O)cc4)c[nH]c3[n+]([O-])c2)cc(OC)c1OC [Example 154, 4-[7-oxy-5-(3,4,5-trimethoxy-phenyl)-1H-pyrrolo[2,3-b]pyridin-3-yl]-benzamide] as the compound, how does the IC50 read?
Answer: The IC50 was 0.1 to 1 µM.

Question: Which IC50 does the source give for COCCC(=O)N1CCN(Cc2ccc(-c3cnc4[nH]cc(-c5ccc6[nH]ccc6c5)c4c3)cc2)CC1 [Example 202] here?
Answer: The IC50 was under 0.1 µM.

Question: For CS(=O)(=O)N1CCN(Cc2ccc(-c3cnc4[nH]cc(-c5ccc6[nH]ccc6c5)c4c3)cc2)CC1 [Example 200], which IC50 is on record?
Answer: Its IC50 is under 0.1 µM.

Question: For COc1cc(-c2cnc3[nH]c(=O)n(-c4cnc5[nH]ccc5c4)c3n2)cc(OC)c1OC [Example 112, 1-(1H-pyrrolo[2,3-b]pyridin-5-yl)-6-(3,4,5-trimethoxyphenyl)-1H-imidazo[4,5-b]pyrazin-2(3H)-one], which IC50 is on record?
Answer: The IC50 was under 0.1 µM.

Question: For O=c1[nH]c2ncc(-c3ccc(N4CCOCC4)cc3)nc2n1CC1CC1 [Example 86, 1-(cyclopropylmethyl)-6-(4-morpholinophenyl)-1H-imidazo[4,5-b]pyrazin-2(3H)-one], which IC50 is on record?
Answer: Its IC50 is over 1 µM.

Question: With COc1ccc(-n2c(=O)[nH]c3ncc(-c4ccncc4)nc32)cc1 [Example 71, 1-(4-methoxyphenyl)-6-(pyridin-4-yl)-1H-imidazo[4,5-b]pyrazin-2(3H)-one] as the compound, how does the IC50 read?
Answer: The IC50 was over 1 µM.

Question: For COc1cc(-c2cnc3c(c2)C(CC2CC2)C(=O)N3)cc(OC)c1OC (centres unmarked) [Example 123, 3-(cyclopropylmethyl)-5-(3,4,5-trimethoxyphenyl)-1H-pyrrolo[2,3-b]pyridin-2(3H)-one], which IC50 is on record?
Answer: Its IC50 is 0.1 to 1 µM.

Question: With COc1ccc(-c2cnc3[nH]cc(-c4ccc5[nH]ccc5c4)c3n2)cc1OC [Example 37, 2-(3,4-dimethoxyphenyl)-7-(1H-indol-5-yl)-5H-pyrrolo[3,2-b]pyrazine] as the compound, how does the IC50 read?
Answer: The IC50 was under 0.1 µM.

Question: For COc1ccc(-n2c(=O)[nH]c3ncc(-c4ccc(O)cc4)nc32)cc1 [Example 70, 6-(4-hydroxyphenyl)-1-(4-methoxyphenyl)-1H-imidazo[4,5-b]pyrazin-2(3H)-one], which IC50 is on record?
Answer: The IC50 was over 1 µM.

Same assay, conditions: read-out: MK3 IC50

Question: With CN1CCN(Cc2ccc(-c3cnc4[nH]c(=O)n(-c5ccc6[nH]ccc6c5)c4n3)cc2)CC1 [Example 212, 1-(1H-Indol-5-yl)-6-[4-(4-methyl-piperazin-1-ylmethyl)-phenyl]-1,3-dihydro-imidazo[4,5-b]pyrazin-2-one] as the compound, how does the IC50 read?
Answer: Its IC50 is 0.1 to 1 µM.

Question: With COc1ccc(-c2c[nH]c3ncc(-c4ccc(CN5CCN(C)CC5)cc4)cc23)cc1 [Example 171] as the compound, how does the IC50 read?
Answer: The IC50 was 0.1 to 1 µM.

Test system: not listed separately
Test: Standard murine pharmacokinetic model (plasma and brain AUC)
Format: in vivo
Settings: CL57 BL/6 mice, single IV injection 10 mg/kg, brain homogenate
Experimental: Several compounds disclosed herein were evaluated in a standard murine pharmacokinetic model. […] Three mice in each group were used for blood and brain collection at each time point. […] The brain of each animal was collected after the final blood collection. The whole tissue was harvested, excised and rinsed by saline, dried by filter paper, and then placed into one tube per tissue per animal. All samples were stored at −20° C. until bioanalysis. Compound concentrations in plasma and brain homogenate were determined using a high performance liquid chromatography/mass spectrometry (HPLC/MS/MS) method (Agilent 1100 series HPLC, AB Inc. API4000 triple-quadrupole with an ESI interface and Analyst 1.4 software). Results in the form of area under the time-versus-concentration curve (AUC) are given below in Table 10.

Question: For CN1CCN(Cc2ccc(-c3cnc4[nH]cc(-c5ccc6[nH]ccc6c5)c4c3)cc2)CC1 [Example 32, 3-(1H-indol-5-yl)-5-(4-((4-methylpiperazin-1-yl)methyl)phenyl)-1H-pyrrolo[2,3-b]pyridine], which “AUC Brain” value is on record?
Answer: Its value is “+ (+ indicates ≥500)”.

Question: With Nc1ccc(-c2cnc3[nH]cc(-c4ccc5[nH]ccc5c4)c3c2)cn1 [Example 4, 5-(3-(1H-indol-5-yl)-1H-pyrrolo[2,3-b]pyridin-5-yl)pyridin-2-amine] as the compound, how does the “AUC Brain” value read?
Answer: Its value is “− (− indicates <500)”.

Question: With Nc1ncc(-c2cnc3[nH]cc(-c4ccc5[nH]ccc5c4)c3c2)cn1 [Example 9, 5-(3-(1H-indol-5-yl)-1H-pyrrolo[2,3-b]pyridin-5-yl)pyrimidin-2-amine] as the compound, how does the “AUC Brain” value read?
Answer: Its value is “+ (+ indicates ≥500)”.

Question: With COc1cc(-c2cnc3[nH]cc(-c4ccc5[nH]ccc5c4)c3c2)cc(OC)c1OC [Example 1, 3-(1H-indol-5-yl)-5-(3,4,5-trimethoxyphenyl)-1H-pyrrolo[2,3-b]pyridine] as the compound, how does the “AUC Brain” value read?
Answer: The value was “+ (+ indicates ≥500)”.

Question: Which “AUC Brain” value does the source give for COc1cc(-c2cnc3[nH]cc(-c4ccc(N)nc4)c3c2)cc(OC)c1OC [Example 18, 5-(5-(3,4,5-trimethoxyphenyl)-1H-pyrrolo[2,3-b]pyridin-3-yl)pyridin-2-amine] here?
Answer: The value was “− (− indicates <500)”.

Question: With COc1cc(-c2cnc3[nH]cc(-c4cnc(N)nc4)c3c2)cc(OC)c1OC [Example 17, 5-(5-(3,4,5-trimethoxyphenyl)-1H-pyrrolo[2,3-b]pyridin-3-yl)pyrimidin-2-amine] as the compound, how does the “AUC Brain” value read?
Answer: Its value is “− (− indicates <500)”.
